Values of other authors in US20060251623A1, “Packaged virus-like particles” (priority 2003, published 2006).

How the values were obtained:
[1] = test system: VLP-induced CTL responses; details: TLR ligand alone compared with CpGs; Schwarz et al., (2003) Eur. J. Immunol., 33, 1465-1470
blood cells = details: Kuramoto E. et al., Japanese Journal Cancer Research 83, 1128-1131 (1992)

Compound | Enhancement of VLP-induced CTL responses [1] | Stimulation of blood cells in vitro (blood cells)
polyinosinic-polycytidylic acid [poly (I:C)] | failed to enhance VLP-induced CTL responses in a way similar to CpGs | 
GGGGGGGGGGGACGATCGTCGGGGGGGGGG [SEQ ID NO: 54] |  | able to stimulate blood cells in vitro
CC(C)Cn1cnc2c(N)nc3ccccc3c21 [imiquimode] | failed to enhance VLP-induced CTL responses in a way similar to CpGs | 
flagellin | failed to enhance VLP-induced CTL responses in a way similar to CpGs | 
